BindingDB's records for doi:10.7270/Q2G73C2Z (University of Pittsburgh, 2007)
pIC50: −log10 of the molar value.

Molecular target: T1, Dual specificity protein phosphatase 6 (Rattus norvegicus, UniProt Q64346)
T1 sequence (Q64346 whole entry): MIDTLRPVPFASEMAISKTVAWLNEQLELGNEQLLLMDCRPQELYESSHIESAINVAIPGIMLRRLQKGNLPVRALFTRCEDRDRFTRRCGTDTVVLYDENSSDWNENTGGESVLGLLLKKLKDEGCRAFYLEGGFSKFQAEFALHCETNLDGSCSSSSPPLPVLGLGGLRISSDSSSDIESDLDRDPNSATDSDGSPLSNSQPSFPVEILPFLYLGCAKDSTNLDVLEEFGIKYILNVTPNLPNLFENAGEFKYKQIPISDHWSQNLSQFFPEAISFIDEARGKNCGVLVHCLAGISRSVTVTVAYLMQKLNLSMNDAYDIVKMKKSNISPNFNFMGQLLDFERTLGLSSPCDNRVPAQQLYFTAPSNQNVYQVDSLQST
Experiment: reproducibility of MKP-3 inhibition curves – biochemical, rat DUSP6, reproducibility testing, probe assessment, dose response (AID 566)

Row | SMILES | pIC50
1 | Cc1ccc(C)n1-c1cccc(C(=O)O)c1 | < 4.30
2 | O=C(Nc1ccc2nc(-c3ccco3)c(-c3ccco3)nc2c1)N1CCCCCC1 | < 4.30
3 | CCCCCC#CCC#CCC#CCC#CCCCC(=O)O | < 4.30
4 | Cn1ncnc2c(=O)n(C)c(=O)nc1-2 | 6.27
5 | [O-]/[N+](=C\c1ccncc1)c1ccccc1 | < 4.30
6 | O=C1C=Cc2ccccc2C1=O [1,2-dihydronaphthalene-1,2-dione] | < 4.30
7 | Cc1nc2cc(-c3cccc(F)c3)nn2c(C)c1CCC(=O)N1CCC2(CC1)OCCO2 [1-(1,4-dioxa-8-azaspiro[4.5]decan-8-yl)-3-[2-(3-fluorophenyl)-5,7-dimethyl-6-pyrazolo[1,5-a]pyrimidinyl]-1-propanone] | < 4.30
8 | CCn1nc(-c2ccccc2)nc2c(=O)n(C)c(=O)nc1-2 [1-Ethyl-6-methyl-3-phenyl-1H-pyrimido[5,4-e][1,2,4]triazine-5,7-dione] | 6.25
9 | Cc1cc(C)n2c(SCC(=O)N3CCN(S(=O)(=O)c4ccc(Cl)cc4)CC3)nnc2n1 [1-[4-(4-chlorophenyl)sulfonyl-1-piperazinyl]-2-[(5,7-dimethyl-[1,2,4]triazolo[4,3-a]pyrimidin-3-yl)thio]ethanone] | < 4.30
10 | [O-]/[N+](=C\c1ccc(OC(F)F)cc1)c1ccccc1 [1-[4-(difluoromethoxy)phenyl]-N-phenylmethanimine oxide] | < 4.30
11 | CCCCn1c(SCC(=O)c2ccc(OC)cc2OC)nc2cc(S(N)(=O)=O)ccc21 [1-butyl-2-[2-(2,4-dimethoxyphenyl)-2-oxidanylidene-ethyl]sulfanyl-benzimidazole-5-sulfonamide] | < 4.30
12 | CCn1nc(-c2cccs2)nc2c(=O)n(C)c(=O)nc1-2 [1-ethyl-6-methyl-3-thiophen-2-yl-pyrimido[5,4-e][1,2,4]triazine-5,7-dione] | 6.35
13 | O=C(Nc1ccccc1)c1ccc2nc(-c3ccco3)c(-c3ccco3)nc2c1 [2,3-di-2-furyl-N-phenyl-6-quinoxalinecarboxamide] | < 4.30
14 | CC(C)Cn1c(N)c(C(=O)COC(=O)c2cc(-c3ccco3)nc3ccccc23)c(=O)n(C)c1=O [2-(2-furanyl)-4-quinolinecarboxylic acid [2-[4-amino-1-methyl-3-(2-methylpropyl)-2,6-dioxo-5-pyrimidinyl]-2-oxoethyl] ester] | < 4.30
15 | CCOc1ccc(-c2cc3nc(C4CCN(C(=O)OC(C)(C)C)CC4)c(C(=O)O)cn3n2)cc1 [2-(4-ethoxyphenyl)-5-[1-[(2-methylpropan-2-yl)oxy-oxomethyl]-4-piperidinyl]-6-pyrazolo[1,5-a]pyrimidinecarboxylic acid] | < 4.30
16 | COc1ccc(-c2cc3nc(C4CCN(C(=O)OC(C)(C)C)CC4)c(C(=O)O)cn3n2)cc1 [2-(4-methoxyphenyl)-5-[1-[(2-methylpropan-2-yl)oxy-oxomethyl]-4-piperidinyl]-6-pyrazolo[1,5-a]pyrimidinecarboxylic acid] | < 4.30
17 | Cc1cccc(NC(=O)c2cc(NC(=O)C3CCCCC3C(=O)O)ccc2N2CCCCC2)c1 (configuration not stated) [2-({[3-{[(3-methylphenyl)amino]carbonyl}-4-(1-piperidinyl)phenyl]amino}carbonyl)cyclohexanecarboxylic acid] | < 4.30
18 | Cc1ccc(/C=C/C2=Cc3c(sc(NC(=O)CSc4nnc(N)[nH]4)c3C#N)C(C)(C)C2)o1 [2-[(5-azanyl-1H-1,2,4-triazol-3-yl)sulfanyl]-N-[3-cyano-7,7-dimethyl-5-[(E)-2-(5-methylfuran-2-yl)ethenyl]-6H-1-benzothiophen-2-yl]ethanamide] | < 4.30
19 | CCCCNC(=O)c1c(N)n(CCCOC)c2nc3ccccc3nc12 [2-amino-N-butyl-1-(3-methoxypropyl)-3-pyrrolo[3,2-b]quinoxalinecarboxamide] | < 4.30

Row | SMILES | pIC50
20 | N#Cc1c(N)sc(=S)c2c1CCN(Cc1ccccc1)C2 [3-Amino-7-benzyl-1-thioxo-5,6,7,8-tetrahydro-1H-thiopyrano[3,4-c]pyridine-4-carbonitrile] | 5.68
21 | O=C1C=C(NCc2ccc(Cl)c(Cl)c2)CC1 [3-[(3,4-dichlorobenzyl)amino]cyclopent-2-en-1-one] | < 4.30
22 | CCCSc1nnc(NC(=O)c2sc3nc(-c4cccs4)ccc3c2N)s1 [3-amino-N-(5-propylsulfanyl-1,3,4-thiadiazol-2-yl)-6-thiophen-2-ylthieno[2,3-b]pyridine-2-carboxamide] | < 4.30
23 | O=C1Nc2ccccc2SC(c2ccccc2)C1O (configuration not stated) [3-hydroxy-2-phenyl-2,3-dihydro-1,5-benzothiazepin-4(5H)-one] | < 4.30
24 | CC(C)(C)N1C(=O)Cc2c1nc(N)c1c(N)nc(N3CCCCC3CO)c(C#N)c21 (configuration not stated) [5,6-bis(azanyl)-3-tert-butyl-8-[2-(hydroxymethyl)piperidin-1-yl]-2-oxidanylidene-1H-pyrrolo[2,3-c][2,7]naphthyridine-9-carbonitrile] | < 4.30
25 | COc1cc(/C=C(/C#N)c2ccc(F)cc2)ccc1OCc1ccc(C(=O)O)o1 [5-({4-[2-cyano-2-(4-fluorophenyl)vinyl]-2-methoxyphenoxy}methyl)-2-furoic acid] | < 4.30
26 | COc1ccc(Br)cc1C=c1sc2nc(-c3ccco3)nn2c1=O [5-[(5-bromanyl-2-methoxy-phenyl)methylidene]-2-(furan-2-yl)-[1,3]thiazolo[3,2-b][1,2,4]triazol-6-one] | < 4.30
27 | CCOc1cc(/C=C(/C#N)c2ccc(F)cc2)ccc1OCc1ccc(C(=O)O)o1 [5-[[4-[(E)-2-cyano-2-(4-fluorophenyl)ethenyl]-2-ethoxyphenoxy]methyl]furan-2-carboxylic acid] | < 4.30
28 | N#Cc1c(NC(=O)c2ccc(Br)o2)n(-c2ccccc2)c2nc3ccccc3nc12 [5-bromanyl-N-(3-cyano-1-phenyl-pyrrolo[3,2-b]quinoxalin-2-yl)furan-2-carboxamide] | 4.81
29 | Cc1cccc(N2CCN(C(=O)Cc3c(C(=O)O)[nH]c4ccc(Cl)cc34)CC2)c1C [5-chloranyl-3-[2-[4-(2,3-dimethylphenyl)piperazin-1-yl]-2-oxidanylidene-ethyl]-1H-indole-2-carboxylic acid] | < 4.30
30 | CCCCCNC(=O)c1ccc2c(=O)[nH]c3c(C(=O)NCC4CCCO4)sc(=S)n3c2c1 (configuration not stated) [5-oxo-N3-(2-oxolanylmethyl)-N8-pentyl-1-sulfanylidene-4H-thiazolo[3,4-a]quinazoline-3,8-dicarboxamide] | < 4.30
31 | Cc1nc2c(C(=O)NCCC3=CCCCC3)c[nH]n2c(=O)c1Cl [6-chloro-N-(2-cyclohex-1-en-1-ylethyl)-7-hydroxy-5-methylpyrazolo[1,5-a]pyrimidine-3-carboxamide] | < 4.30
32 | O=C(c1cccs1)c1no[n+]([O-])c1C(=O)c1cccs1 [(5-oxidanidyl-4-thiophen-2-ylcarbonyl-1,2,5-oxadiazol-5-ium-3-yl)-thiophen-2-yl-methanone] | < 4.30
33 | Nc1c(N2CCCC2)cc(Cl)c2nonc12 [(7-chloro-5-pyrrolidino-benzofurazan-4-yl)amine] | < 4.30
34 | [O-]/[N+](=C/c1ccc(F)cc1)c1ccccc1 [(E)-(4-fluorobenzylidene)(phenyl)azane oxide] | < 4.30
35 | CC1=C(/C=C/C(C)=C/C=C/C(C)=C/C(=O)O)C(C)(C)CCC1 [ALL-TRANS-RETINOIC ACID] | < 4.30
36 | CC(=O)[C@@H]1[C@@H]2C(=O)N(c3ccc(F)c(Cl)c3)C(=O)[C@@H]2C2c3ccccc3C=CN21 (some centres not stated) [MLS000040594] | 4.33
37 | COCCCn1c(N)c(C(=O)NCCC(C)C)c2nc3ccccc3nc21 [MLS000041744] | < 4.30
38 | CCn1c(SCC(=O)Nc2ccc3c(c2)c2ccccc2n3CC)nnc1-c1ccco1 [MLS000050867] | < 4.30

Row | SMILES | pIC50
39 | O=C1C(=C2C(=O)c3ccccc3C2=O)Nc2ccccc21 [MLS000071738] | < 4.30
40 | COc1ccc(-n2c(NC(=O)c3ccco3)c(C#N)c3nc4ccccc4nc32)cc1 [MLS000079925] | 4.85
41 | COc1ccc(Cn2c(C)nc3c(c2=O)c2nc4ccccc4nc2n3Cc2ccco2)cc1 [MLS000079944] | < 4.30
42 | Cc1ccc(-c2csc(NC(=O)c3ccno3)n2)cc1 [MLS000081820] | < 4.30
43 | CC(C)Sc1nc2sc3c(c2c2nnc(SCC(=O)NCc4ccco4)n12)CCCC3 [MLS000082957] | < 4.30
44 | Nc1nc2c(s1)CCc1c-2cnn1-c1ccccc1 [MLS000085948] | < 4.30
45 | Cc1cc(NC(=O)c2ccc(S(=O)(=O)N3CCCC3)cc2)nc2c1c(=O)oc1ccccc12 [MLS000091355] | < 4.30
46 | FC(F)(F)c1ccc(N2CCOCC2)c(Nc2nc3ccccc3n3cnnc23)c1 [MLS000093276] | < 4.30
47 | COC(=O)c1ccccc1NC(=O)CN1C(=O)C2CCCN2c2ncc(Cl)cc21 (configuration not stated) [MLS000094302] | < 4.30
48 | CCc1ccc(NC(=O)CSc2nc3ccccc3c(=O)n2CCN2CCOCC2)cc1 [MLS000095236] | < 4.30
49 | Cc1c(N=c2c(=O)c3ccccc3c2=O)c(=O)n(-c2ccccc2)n1C [MLS000105950] | 5.09
50 | CCOc1ccc2noc3c2c1C(=O)c1ccccc1-3 [MLS000106837] | < 4.30
51 | COc1ccc2noc3c2c1C(=O)c1ccccc1-3 [MLS000106874] | 4.65
52 | CCOC(=O)c1ccc2c(c1)C1C=CCC1C(C(=O)O)N2 (configuration not stated) [MLS-0025126.0001] | < 4.30
53 | O=C(NC1(O)C(=O)c2ccccc2C1=O)c1ccccc1 [N-(2-hydroxy-1,3-dioxo-2-indenyl)benzamide] | 4.70
54 | O=C(OC1CCCCC1)c1ccc2c(c1)C1C=CCC1C(C(=O)O)N2 (configuration not stated) [SMR000019385] | < 4.30
55 | O=C1c2ccccc2-c2onc3ccc(NCCCn4ccnc4)c1c23 [SMR000044769] | < 4.30
56 | CCCCn1c(NC(=O)c2ccccc2)c(C#N)c2nc3ccccc3nc21 [SMR000060333] | 4.74
57 | N#Cc1c(N2CCCC2)nc(N)c2c(N)nc(N3CCCC3)cc12 [SMR000061605] | 5.46
